The record followed here is ChEMBL document CHEMBL1201862, “PubChem BioAssay data set” (2004).

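The compound was tested at five concentrations on cells cultured in 96-well plates, with a 48-hour exposure period. At the GI50, growth is halved.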 Active and inactive are the calls of the source. Rule as the data show it: active = GI50 up to about 1.1 µM and inactive = higher.

Holding throughout (assay): NCI tumour cell line growth inhibition, 48 h
Test [1] concerns A498.
The test system of test [2] is A549.
Test [3] has as its system ACHN.
Test [4] has as its system CCRF-CEM.
The subject of test [5] is DU-145.
In test [6] the test system is HOP-62.
Test [7] relates to MDA-MB-231.
In test [8] the test system is Malme-3M.
The test system of test [9] is NCI-H226.
In test [10] the test system is NCI-H460.
Test [11] has as its system NCI-H522.
Test [12] concerns NCI/ADR-RES.
For test [13], the system named is OVCAR-3.
For test [14], the system named is OVCAR-5.
For test [15], the system named is OVCAR-8.
Test [16] concerns SK-MEL-28.
For test [17], the system named is SNB-19.
Test [18] deals with SR.
Test [19] concerns TK-10.
The test system of test [20] is U-251.

With `O=C1N/C(=N\N=C\c2ccccc2)C(c2ccccc2)O1` (stereo not given), the GI50 in [1] is 99.3 µM (inactive); in test [2], 45.3 µM (inactive); in test [3], 53.5 µM (inactive); in test [4] it was 12.7 µM (inactive); in [5], 53 µM (inactive); in test [6] it was 65.6 µM (inactive). Besides, the GI50 is 88.5 µM (inactive) in test [7]; > 100 µM (inactive) in test [8]; 30.9 µM (inactive) in [9]; 38.4 µM (inactive) in test [10]; > 100 µM (inactive) in test [11]; 33.3 µM (inactive) in test [12]. Moreover, the GI50 in test [13] is 27.4 µM (inactive); in [14], > 100 µM (inactive); in test [15] it was 47.5 µM (inactive); in [16], > 100 µM (inactive); in test [17], > 100 µM (inactive); in test [18], 23.6 µM (inactive). The GI50 is 24 µM (inactive) in [19] and 58.9 µM (inactive) in test [20].
As for `C/C(=N\NC(=S)Nc1ccc(Cl)cc1)c1nc2cccnc2[nH]1`, the GI50 in test [1] was 6.21 µM (inactive); in test [2], 2.38 µM (inactive); in [3], 0.822 µM (active); in test [4], 0.492 µM (active); in test [5], 1.97 µM (inactive); in [6], 1.52 µM (inactive). Moreover, the GI50 in test [7] is 6.04 µM (inactive); in test [8] it was 3.35 µM (inactive); in test [9], 1.77 µM (inactive); in [10], 0.665 µM (active); in test [11], 6.89 µM (inactive); in test [12], 2.65 µM (inactive). The GI50 in test [13] was 0.352 µM (active); in test [14], 2.29 µM (inactive); in test [15], 1.45 µM (inactive); in [16] it was 1.51 µM (inactive); in [17], 2.08 µM (inactive); in test [18], 0.92 µM (active). Besides, the GI50 in [19] is 0.309 µM (active); in [20], 0.773 µM (active).
Regarding `O=C(O)C1C2c3ccccc3C(c3ccccc32)C1C(=O)NCC1CC1` (stereo not given), the GI50 in test [1] was 78 µM (inactive); in [2] it was 62.2 µM (inactive); in [3] it was 78 µM (inactive); in [4], 31.2 µM (inactive); in [5], 81.1 µM (inactive); in test [6] it was 68.2 µM (inactive). Also, the GI50 is > 100 µM (inactive) in test [7]; > 100 µM (inactive) in test [8]; 60.4 µM (inactive) in [9]; 40.2 µM (inactive) in test [10]; 29.9 µM (inactive) in test [11]; 32.4 µM (inactive) in [12]. Moreover, the GI50 is 46.8 µM (inactive) in test [13]; > 100 µM (inactive) in test [14]; 55 µM (inactive) in test [15]; > 100 µM (inactive) in test [16]; > 100 µM (inactive) in test [17]; 45 µM (inactive) in test [18]. In addition, the GI50 was 32.4 µM (inactive) in test [19] and 47 µM (inactive) in test [20].
On to `O=C(c1ccccc1)C(Nc1ccc2ccccc2c1)c1ccccc1` (stereo not given), for which the GI50 is 21.3 µM (inactive) in test [1]; 33.3 µM (inactive) in [2]; 48.8 µM (inactive) in test [3]; 13.7 µM (inactive) in test [4]; 42 µM (inactive) in test [5]; 36.6 µM (inactive) in test [6]. For the same compound, the GI50 is 28.8 µM (inactive) in test [7]; 30.2 µM (inactive) in test [8]; > 60.7 µM (inactive) in test [9]; 21.2 µM (inactive) in [10]; 6.98 µM (inactive) in [11]; 25.2 µM (inactive) in test [12]. Further, the GI50 in [13] is 13.9 µM (inactive); in [14] it was > 52.7 µM (inactive); in test [15] it was 42 µM (inactive); in test [16], 49.7 µM (inactive); in [17], 34.7 µM (inactive); in [18] it was 7.89 µM (inactive). Further, the GI50 was 29 µM (inactive) in test [19] and 21.9 µM (inactive) in test [20].
